# Measured values: patent EP0554004A2, “Cephem compounds and antibacterial agents” (KATAYAMA SEIYAKUSYO CO. Ltd., priority 1992, dated 1993)
# Key:
# [1] = system: A. calcoaceticos T59; assay: MIC against standard strains (Test Example 3); type: cell-based; conditions: A. calcoaceticos T59 (Test Example 3); read-out: MIC
# Procedure: (§1) By using each test strain cultured overnight at 37°C in a Muller-Hinton broth, there was prepared a bacterial solution with a bacterial cell population of 1 x 10^6 CFU/mi of the same bouillon. The bacterial solution was inoculated into the Muller-Hinton agar media each containing respectively one test agent and, after overnight incubation at 37°C, the minimum concentration that inhibited growth of the bacteria was determined and shown as MIC also in Table 1.
# (§2) The minimum growth inhibitory concentration was determined for each of the 21 standard strains shown in Table 3, according to the same method as used in Test Example 1.
# (§3) In the test, FMOX (flomoxef), CTM (cefotiam) and CEZ (cefazolin) were used as control agents.
# [2] = system: A. faecalis ATCC3750; assay: MIC against standard strains (Test Example 3); type: cell-based; conditions: Alcaligenes faecalis; A. faecalis ATCC3750 (Test Example 3); read-out: MIC
# Procedure: as §1, §2, §3
# [3] = system: B. subtilis ATCC6633; assay: MIC against standard strains (Test Example 3); type: cell-based; conditions: Bacillus subtilis; B. subtilis ATCC6633 (Test Example 3); read-out: MIC
# Procedure: as §1, §2, §3
# [4] = system: C. freundii ATCC8090; assay: MIC against standard strains (Test Example 3); type: cell-based; conditions: Citrobacter freundii; C. freundii ATCC8090 (Test Example 3); read-out: MIC
# Procedure: as §1, §2, §3
# [5] = system: E. cloacae ATCC13407; assay: MIC against standard strains (Test Example 3); type: cell-based; conditions: Enterobacter cloacae; E. cloacae ATCC13407 (Test Example 3); read-out: MIC
# Procedure: as §1, §2, §3
# [6] = system: E. coli CSH2 (RE45); assay: MIC against standard strains (Test Example 3); type: cell-based; conditions: Escherichia coli
# Procedure: as §1, §2, §3
# [7] = system: E. coli CSH2 (RK1); assay: MIC against standard strains (Test Example 3); type: cell-based; conditions: Escherichia coli
# Procedure: as §1, §2, §3
# [8] = system: E. coli NIHJ JC-2; assay: MIC against standard strains (Test Example 3); type: cell-based; conditions: Escherichia coli, NIHJJC2; E. coli NIHJ JC-2 (Test Example 3); read-out: MIC
# Procedure: as §1, §2, §3
# [9] = system: K. pneumoniae IFO3317; assay: MIC against standard strains (Test Example 3); type: cell-based; conditions: Klebsiella pneumoniae; K. pneumoniae IFO3317 (Test Example 3); read-out: MIC
# Procedure: as §1, §2, §3
# [10] = system: K. pneumoniae No. 42; assay: MIC against standard strains (Test Example 3); type: cell-based; conditions: Klebsiella pneumoniae; K. pneumoniae No. 42 (Test Example 3); read-out: MIC
# Procedure: as §1, §2, §3
# [11] = system: M. Morganii IFO3848; assay: MIC against standard strains (Test Example 3); type: cell-based; conditions: Morganella morganii; M. Morganii IFO3848 (Test Example 3); read-out: MIC
# Procedure: as §1, §2, §3
# [12] = system: M. luteus ATCC 9341; assay: MIC against standard strains (Test Example 3); type: cell-based; conditions: Micrococcus luteus, ATCC9341; M. luteus ATCC 9341 (Test Example 3); read-out: MIC
# Procedure: as §1, §2, §3
# [13] = system: P. aeruginosa NCTC10490; assay: MIC against standard strains (Test Example 3); type: cell-based; conditions: Pseudomonas aeruginosa; P. aeruginosa NCTC10490 (Test Example 3); read-out: MIC
# Procedure: as §1, §2, §3
# [14] = system: P. mirabilis IFO3849; assay: MIC against standard strains (Test Example 3); type: cell-based; conditions: Proteus mirabilis; P. mirabilis IFO3849 (Test Example 3); read-out: MIC
# Procedure: as §1, §2, §3
# [15] = system: P. vulugaris OX-19; assay: MIC against standard strains (Test Example 3); type: cell-based; conditions: P. vulugaris OX-19 (Test Example 3); read-out: MIC
# Procedure: as §1, §2, §3
# [16] = system: S. aureus 167; assay: MIC against standard strains (Test Example 3); type: cell-based; conditions: Staphylococcus aureus; S. aureus 167 (MRSA) (Test Example 3); read-out: MIC
# Procedure: as §1, §2, §3
# [17] = system: S. aureus 195; assay: MIC against standard strains (Test Example 3); type: cell-based; conditions: Staphylococcus aureus; S. aureus 195 (MRSA) (Test Example 3); read-out: MIC
# Procedure: as §1, §2, §3
# [18] = system: S. aureus 209p JC-1; assay: MIC against standard strains (Test Example 3); type: cell-based; conditions: Staphylococcus aureus; S. aureus 209p JC-1 (Test Example 3); read-out: MIC
# Procedure: as §1, §2, §3
# [19] = system: S. aureus Smith; assay: MIC against standard strains (Test Example 3); type: cell-based; conditions: Staphylococcus aureus; S. aureus Smith (Test Example 3); read-out: MIC
# Procedure: as §1, §2, §3
# [20] = system: S. epidemidis IAM1296; assay: MIC against standard strains (Test Example 3); type: cell-based; conditions: S. epidemidis IAM1296 (Test Example 3); read-out: MIC
# Procedure: as §1, §2, §3
# [21] = system: S. marcescens IAM1184; assay: MIC against standard strains (Test Example 3); type: cell-based; conditions: Serratia marcescens; S. marcescens IAM1184 (Test Example 3); read-out: MIC
# Procedure: as §1, §2, §3
# [22] = system: clinically isolated MRSA; assay: Antibacterial potency against clinically isolated MRSA (Test Example 2); type: cell-based, methicillin-resistant Staphylococcus aureus; conditions: Staphylococcus aureus, 52 strains of clinically isolated MRSA
# Procedure: A test on the antibacterial potency against clinically isolated MRSA was conducted in the following way.
# (§4) 52 strains of clinically isolated MRSA were used, and MIC was determined for each of the strains according to the standard method of the Japan Chemotherapical Society as in Test Example 1. The minimum growth inhibitory concentration which inhibited growth of 50% of the strains tested was expressed as MIC50 (µg/ml), and the minimum growth inhibitory concentration which inhibited growth of 90% of the strains was expressed as MIC90 (µg/ml).
# In this test, FMOX (flomoxef), IPM/CS (imipenem/cilastatin), CMZ (cefmetazole), MINO (minocycline) and DMPPC (methicillin) were used as control agents.
# [23] = system: clinically isolated MRSA; assay: Antibacterial potency against clinically isolated MRSA (Test Example 4); type: cell-based, methicillin-resistant Staphylococcus aureus; conditions: Staphylococcus aureus, 52 strains of clinically isolated MRSA; for MIC50: concentration inhibiting growth of 50% of the strains (Test Example 4), read-out: MIC50; for MIC90: concentration inhibiting growth of 90% of the strains (Test Example 4), read-out: MIC90
# Procedure: as §4
# MIC 50 and MIC 90 were determined for each of the 52 strains of clinically isolated MRSA according to the same method as used in Test Example 2.
# VCM (vancomycin) was used as control agent.
Compound,MIC [1] [µg/mL],MIC [2] [µg/mL],MIC [3] [µg/mL],MIC [4] [µg/mL],MIC [5] [µg/mL],MIC [6] [µg/mL],MIC [7] [µg/mL],MIC [8] [µg/mL],MIC [9] [µg/mL],MIC [10] [µg/mL],MIC [11] [µg/mL],MIC [12] [µg/mL],MIC [13] [µg/mL],MIC [14] [µg/mL],MIC [15] [µg/mL],MIC [16] [µg/mL],MIC [17] [µg/mL],MIC [18] [µg/mL],MIC [19] [µg/mL],MIC [20] [µg/mL],other results
"Cc1nnc(SCC2=C(C(=O)O)N3C(=O)[C@@H](NC(=O)Cn4cnnn4)[C@H]3SC2)s1 [CEZ, cefazolin, reference compound]",> 100,12.5,0.2,3.13,> 100,1.56,3.13,1.56,0.78,3.13,25,0.78,> 100,6.25,12.5,100,50,0.2,0.2,0.1,MIC [21]: > 100 µg/mL
"CO[C@@]1(NC(=O)CSCC#N)C(=O)N2C(C(=O)O)=C(CSc3nnnn3C)CS[C@@H]21 [CMZ, cefmetazole, reference compound]",–,–,–,–,–,–,–,–,–,–,–,–,–,–,–,–,–,–,–,–,MIC50 ([22]; concentration inhibiting growth of 50% of the strains (Test Example 2)): 16.8 µg/mL; MIC90 ([22]; concentration inhibiting growth of 90% of the strains (Test Example 2)): 49.8 µg/mL
"CNC(=O)c1ccc[n+](CC2=C(C(=O)[O-])N3C(=O)[C@@H](NC(=O)/C(=N\O)c4csc(N)n4)[C@H]3SC2)c1 [Compound (6), 7β-[2-(2-aminothiazol-4-I)-2-syn-hydroxyiminoacetamido]-3-[(3-N-methylcarbamoyl)-1-pyridinio)methyl]-3-cephem-4-carboxylic acid chloride]",12.5,3.13,0.78,0.39,1.56,0.78,1.56,0.39,0.39,0.78,0.2,0.1,3.13,0.39,0.78,12.5,3.13,0.39,0.78,0.2,MIC [21]: 0.39 µg/mL; MIC50 [23]: 2.15 µg/mL; MIC90 [23]: 7.18 µg/mL
"NC(=O)Cc1ccc[n+](CC2=C(C(=O)[O-])N3C(=O)[C@@H](NC(=O)/C(=N\O)c4csc(N)n4)[C@H]3SC2)c1 [Compound (7), 7β-[2-(2-aminothiazol-4-yl)-2-syn-hydroxyiminoacetamido]-3-[(3-carbamoylmethyl-1-pyridinio)methyl]-3-cephem-4-carboxylic acid chloride]",3.13,1.56,0.39,0.2,0.39,0.2,0.78,0.2,0.2,0.39,0.1,0.1,1.56,0.2,0.39,12.5,3.13,0.2,0.39,0.1,MIC [21]: 0.2 µg/mL; MIC50 [23]: 2.04 µg/mL; MIC90 [23]: 5.44 µg/mL
